Converted amounts (≈) assume the structure as drawn. Like-named read-outs stand apart in the source and are kept apart here.
What was measured:
[1] = tested on: toxigenic C. difficile; test: Hamster model of clindamycin-induced Clostridium difficile associated diarrhea/colitis; assay type: in vivo, Syrian hamsters
Protocol: Animals were treated with two oral doses of clindamycin at 100 mg/kg. Three days after the second dose of clindamycin, they were inoculated with toxigenic C. difficile spores. […] Animals were observed daily for the presence or absence of diarrhea. Necropsies were performed on some animals that died during the experiment, and cecal contents were assayed for C. difficile toxin A. Hamsters were monitored for 20 days, and the cumulative mortality during this period was recorded (FIG. 1).

[2] = tested on: C. paraputrificum; test: microbe, parasite or virus in culture; assay type: cell-based; conditions: clinical isolates, n=10
[3] = tested on: Clostridium difficile; test: MIC, 207 clinical isolates of C. difficile; assay type: cell-based
From the text: Compound I was additionally tested against anaerobic clinical isolates and against aerobic bacteria. […] The compound was also active against clinical strains of Staphylococcus sp. and Enterococcus sp.

[4] = tested on: C. difficile; test: MIC via agar dilution, 110 genetically distinct clinical isolates of C. difficile; assay type: cell-based; conditions: for MIC: Clostridioides difficile

## CCc1c(Cl)c(O)c(Cl)c(O)c1C(=O)O[C@H]1[C@H](O)[C@H](OC)[C@H](OC/C2=C\C=C\C[C@H](O)/C(C)=C/[C@H](CC)C(O[C@@H]3OC(C)(C)[C@@H](OC(=O)C(C)C)[C@H](O)[C@@H]3O)/C(C)=C/C(C)=C/C[C@@H](C(C)O)OC2=O)O[C@@H]1C (stereo partly shown) [Compound I]
[1]; Clostridioides difficile, oral, 7 days, started 8 hours after infection, hamsters monitored 20 days
  ED50: < 0.3 mg/kg
[1]; oral treatment for 7 days, untreated infection uniformly fatal between days two and six
  protection from infection (cumulative mortality over 20 days): protected the animals from infection
[2]; Clostridium paraputrificum
  MIC50: 8 µg/mL (≈ 7.56 µM)
  MIC90: 32 µg/mL (≈ 30.2 µM)
[2]
  Range (MIC): 0.062-64 ^ μg/mL
[3]; Clostridioides difficile, clinical isolates, n=207
  MIC90: 0.008 µg/mL (≈ 0.00756 µM)
[3]; Clostridioides difficile, clinical isolates, n=207, read-out: MIC50
  MIC50: 0.0019 µg/mL (≈ 0.0018 µM)
[3]; clinical isolates, n=207
  MIC50: 0.002 µg/mL (≈ 0.00189 µM)
[3]; panel of 207 C. difficile clinical isolates
  sensitivity of isolates (in words): very sensitive
[4]; 110 clinical isolates, agar dilution
  Range (MIC): 0.015 to 0.25 µg/mL
[4]
  MIC: 0.125 µg/mL (≈ 0.118 µM)
[4]; isolate ORG ID 61 5930, read-out: MIC
  MIC: 0.03 µg/mL (≈ 0.0284 µM)
[4]; isolate ORG ID 63 6029, read-out: MIC
  MIC: 0.25 µg/mL (≈ 0.236 µM)
[4]; isolate ORG ID 65 5967, read-out: MIC
  MIC: 0.06 µg/mL (≈ 0.0567 µM)
[4]; isolate ORG ID 66 6366, read-out: MIC
  MIC: 0.015 µg/mL (≈ 0.0142 µM)
[4]; isolate ORG ID 68 6368, read-out: MIC
  MIC: 0.03 µg/mL (≈ 0.0284 µM)
[4]; isolate ORG ID 69 6370, read-out: MIC
  MIC: 0.25 µg/mL (≈ 0.236 µM)
[4]; isolate ORG ID 73 6382, read-out: MIC
  MIC: 0.25 µg/mL (≈ 0.236 µM)
[4]; isolate ORG ID 77 6390, read-out: MIC
  MIC: 0.06 µg/mL (≈ 0.0567 µM)
[4]; isolate ORG ID 78 6392, read-out: MIC
  MIC: 0.015 µg/mL (≈ 0.0142 µM)
[4]; isolate ORG ID 82 6329, read-out: MIC
  MIC: 0.06 µg/mL (≈ 0.0567 µM)
[4]; isolate ORG ID 83 6330, read-out: MIC
  MIC: 0.06 µg/mL (≈ 0.0567 µM)
[4]; isolate ORG ID 85 6332, read-out: MIC
  MIC: 0.06 µg/mL (≈ 0.0567 µM)
[4]; isolate ORG ID 86 6333, read-out: MIC
  MIC: 0.03 µg/mL (≈ 0.0284 µM)
[4]; isolate ORG ID 89 6336, read-out: MIC
  MIC: 0.25 µg/mL (≈ 0.236 µM)
[4]; isolate ORG ID 94 6343, read-out: MIC
  MIC: 0.015 µg/mL (≈ 0.0142 µM)
[4]; isolate ORG ID 96 6348, read-out: MIC
  MIC: 0.06 µg/mL (≈ 0.0567 µM)
[4]; isolate ORG ID 97 6349, read-out: MIC
  MIC: 0.25 µg/mL (≈ 0.236 µM)
[4]; isolate ORG ID 101 6354, read-out: MIC
  MIC: 0.015 µg/mL (≈ 0.0142 µM)
[4]; isolate ORG ID 102 6355, read-out: MIC
  MIC: 0.016 µg/mL (≈ 0.0151 µM)
[4]; isolate ORG ID 103 6068, read-out: MIC
  MIC: 0.06 µg/mL (≈ 0.0567 µM)
[4]; isolate ORG ID 104 6060, read-out: MIC
  MIC: 0.03 µg/mL (≈ 0.0284 µM)
[4]; isolate ORG ID 105 6071, read-out: MIC
  MIC: 0.03 µg/mL (≈ 0.0284 µM)
[4]; isolate ORG ID 106 6078, read-out: MIC
  MIC: 0.03 µg/mL (≈ 0.0284 µM)
[4]; isolate ORG ID 107 6079, read-out: MIC
  MIC: 0.06 µg/mL (≈ 0.0567 µM)
[4]; isolate ORG ID 109 6274, read-out: MIC
  MIC: 0.015 µg/mL (≈ 0.0142 µM)
[4]; isolate ORG ID 111 6279, read-out: MIC
  MIC: 0.03 µg/mL (≈ 0.0284 µM)
[4]; isolate ORG ID 112 6280, read-out: MIC
  MIC: 0.06 µg/mL (≈ 0.0567 µM)
[4]; isolate ORG ID 113 6304, read-out: MIC
  MIC: 0.06 µg/mL (≈ 0.0567 µM)
[4]; isolate ORG ID 114 386, read-out: MIC
  MIC: 0.06 µg/mL (≈ 0.0567 µM)
[4]; isolate ORG ID 115 5985, read-out: MIC
  MIC: 0.015 µg/mL (≈ 0.0142 µM)
[4]; isolate ORG ID 116 5702, read-out: MIC
  MIC: 0.06 µg/mL (≈ 0.0567 µM)
[4]; isolate ORG ID 117 6026, read-out: MIC
  MIC: 0.06 µg/mL (≈ 0.0567 µM)
[4]; isolate ORG ID 120 6057, read-out: MIC
  MIC: 0.03 µg/mL (≈ 0.0284 µM)
[4]; isolate ORG ID 121 6072, read-out: MIC
  MIC: 0.06 µg/mL (≈ 0.0567 µM)
[4]; isolate ORG ID 122 6111, read-out: MIC
  MIC: 0.25 µg/mL (≈ 0.236 µM)
[4]; isolate ORG ID AA2 4380, read-out: MIC
  MIC: 0.015 µg/mL (≈ 0.0142 µM)
[4]; isolate ORG ID AB2 1725, read-out: MIC
  MIC: 0.06 µg/mL (≈ 0.0567 µM)
[4]; isolate ORG ID AC1 1546, read-out: MIC
  MIC: 0.06 µg/mL (≈ 0.0567 µM)
[4]; isolate ORG ID AJ1 1557, read-out: MIC
  MIC: 0.06 µg/mL (≈ 0.0567 µM)
[4]; isolate ORG ID AL1 1753, read-out: MIC
  MIC: 0.06 µg/mL (≈ 0.0567 µM)
[4]; isolate ORG ID AV1 941, read-out: MIC
  MIC: 0.25 µg/mL (≈ 0.236 µM)
[4]; isolate ORG ID B1 832, read-out: MIC
  MIC: 0.06 µg/mL (≈ 0.0567 µM)
[4]; isolate ORG ID BH1 4506, read-out: MIC
  MIC: 0.06 µg/mL (≈ 0.0567 µM)
[4]; isolate ORG ID BM1 1453, read-out: MIC
  MIC: 0.06 µg/mL (≈ 0.0567 µM)
[4]; isolate ORG ID BR1 1321, read-out: MIC
  MIC: 0.06 µg/mL (≈ 0.0567 µM)
[4]; isolate ORG ID BT1 706, read-out: MIC
  MIC: 0.06 µg/mL (≈ 0.0567 µM)
[4]; isolate ORG ID CB1 1584, read-out: MIC
  MIC: 0.25 µg/mL (≈ 0.236 µM)
[4]; isolate ORG ID CL1 3851, read-out: MIC
  MIC: 0.25 µg/mL (≈ 0.236 µM)
[4]; isolate ORG ID CN1 667, read-out: MIC
  MIC: 0.25 µg/mL (≈ 0.236 µM)
[4]; isolate ORG ID CO1 4652, read-out: MIC
  MIC: 0.25 µg/mL (≈ 0.236 µM)
[4]; isolate ORG ID D1 1360, read-out: MIC
  MIC: 0.03 µg/mL (≈ 0.0284 µM)
[4]; isolate ORG ID E1 816, read-out: MIC
  MIC: 0.06 µg/mL (≈ 0.0567 µM)
[4]; isolate ORG ID J1 5971, read-out: MIC
  MIC: 0.06 µg/mL (≈ 0.0567 µM)
[4]; isolate ORG ID J7 4224, read-out: MIC
  MIC: 0.03 µg/mL (≈ 0.0284 µM)
[4]; isolate ORG ID J9 4478, read-out: MIC
  MIC: 0.06 µg/mL (≈ 0.0567 µM)
[4]; isolate ORG ID O1 1861, read-out: MIC
  MIC: 0.06 µg/mL (≈ 0.0567 µM)
[4]; isolate ORG ID R6 6015, read-out: MIC
  MIC: 0.015 µg/mL (≈ 0.0142 µM)
[4]; isolate ORG ID Y1 5639, read-out: MIC
  MIC: 0.06 µg/mL (≈ 0.0567 µM)
[4]; isolate ORG ID Y2 1459, read-out: MIC
  MIC: 0.06 µg/mL (≈ 0.0567 µM)

Reference: patent US20070173462A1, “Treatment of diseases associated with the use of antibiotics” (Optimer Pharmaceuticals, Inc., priority 2004, published 2007)
